This note sets out measurements from patent US9675614B2, “PRMT5 inhibitors and uses thereof” (Epizyme, Inc., priority 2012, dated 2017).

For one assay, the target named is PRMT5/MEP50 (Homo sapiens (Human), UniProt O14744). Put plainly: PRMT5 Biochemical Assay (PRMT5/MEP50 enzyme assay on peptide substrate, 3H-SAM Flashplate).
Chain of PRMT5/MEP50 (O14744 other isoform, or with tags, fused parts or gaps): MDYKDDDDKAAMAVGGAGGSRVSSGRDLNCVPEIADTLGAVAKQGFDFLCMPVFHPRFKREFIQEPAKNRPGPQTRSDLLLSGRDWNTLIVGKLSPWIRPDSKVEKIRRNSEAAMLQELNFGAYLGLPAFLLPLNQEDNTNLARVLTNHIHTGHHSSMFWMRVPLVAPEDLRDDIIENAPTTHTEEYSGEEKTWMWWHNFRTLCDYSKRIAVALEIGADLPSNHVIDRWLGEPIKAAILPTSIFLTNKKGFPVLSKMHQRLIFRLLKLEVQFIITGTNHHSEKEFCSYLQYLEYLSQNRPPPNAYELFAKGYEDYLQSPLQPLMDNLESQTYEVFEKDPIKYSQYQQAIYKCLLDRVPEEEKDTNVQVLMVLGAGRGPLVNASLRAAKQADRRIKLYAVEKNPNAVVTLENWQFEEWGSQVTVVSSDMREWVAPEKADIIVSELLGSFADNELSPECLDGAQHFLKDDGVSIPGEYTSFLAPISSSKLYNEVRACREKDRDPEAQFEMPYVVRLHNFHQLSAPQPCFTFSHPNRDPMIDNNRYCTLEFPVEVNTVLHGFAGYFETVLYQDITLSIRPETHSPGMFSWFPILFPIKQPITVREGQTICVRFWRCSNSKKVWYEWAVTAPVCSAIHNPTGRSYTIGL
Chain of PRMT5/MEP50 (Q9BQA1 other isoform, or with tags, fused parts or gaps partner): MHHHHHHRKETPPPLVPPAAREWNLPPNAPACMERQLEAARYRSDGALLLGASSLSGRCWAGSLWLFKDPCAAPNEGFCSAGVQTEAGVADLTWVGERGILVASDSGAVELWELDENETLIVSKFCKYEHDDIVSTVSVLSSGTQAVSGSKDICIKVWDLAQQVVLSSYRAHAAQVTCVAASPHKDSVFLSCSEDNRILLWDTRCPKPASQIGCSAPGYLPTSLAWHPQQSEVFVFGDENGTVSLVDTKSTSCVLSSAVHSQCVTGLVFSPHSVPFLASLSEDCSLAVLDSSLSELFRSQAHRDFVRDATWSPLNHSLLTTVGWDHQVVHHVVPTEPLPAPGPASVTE
Conditions: not given
The source says:
S-adenosylmethionine (SAM), S-adenosylhomocysteine (SAH), bicine, KCl, Tween20, dimethylsulfoxide (DMSO), bovine skin gelatin (BSG), and Tris(2-carboxyethyl)phosphine hydrochloride solution (TCEP) were purchased from Sigma-Aldrich at the highest level of purity possible. ^3H-SAM was purchase from American Radiolabeled Chemicals with a specific activity of 80 Ci/mmol. 384-well streptavidin Flashplates were purchased from PerkinElmer.
Peptide representative of human histone H4 residues 1-15 was synthesized with a C-terminal linker-affinity tag motif and a C-terminal amide cap by 21st Century Biochemicals. […] The sequence was Ac-[…][K-Biot]amide (SEQ ID NO.:3).
Full-length human MEP50 (NM_024102) clone was amplified from a human testis cDNA library incorporating a 5′ sequence encoding a 6-histidine tag (MHHHHHH) (SEQ ID NO.:5) fused directly to Arg 2 of MEP50. The amplified genes were subcloned into pENTR/D/TEV (Life Technologies) and subsequently transferred by Gateway™ attL×attR recombination to pDEST8 baculvirus expression vector (Life Technologies).
Recombinant baculovirus and Baculovirus-Infected Insect Cells (BIIC) were generated according to Bac-to-Bac kit instructions (Life Technologies) and Wasilko, 2006, respectively. Protein over-expression was accomplished by infecting exponentially growing Spodoptera frugiperda (SF9) cell culture at 1.2×10^6 cell/ml with a 5000 fold dilution of BIIC stock. Infections were carried out at 27° C. for 72 hours, harvested by centrifugation, and stored at −80° C. for purification.
Flag-PRMT5/6His-MeP50 was eluted with 300 mM Imidazole in the same buffer. […] Reference: Wasilko, D. J. and S. E. Lee: “TIPS: titerless infected-cells preservation and scale-up” Bioprocess J., 5 (2006), pp. 29-32.
General Procedure for PRMT5/MEP50 Enzyme Assays on Peptide Substrates.
The assays were all performed in a buffer consisting of 20 mM Bicine (pH=7.6), 1 mM TCEP, 0.005% BSG, and 0.002% Tween20, prepared on the day of use. Compounds in 100% DMSO (1 ul) were spotted into a polypropylene 384-well V-bottom plates (Greiner) using a Platemate Plus outfitted with a 384-channel head (Thermo Scientific). DMSO (1 ul) was added to Columns 11, 12, 23, 24, rows A-H for the maximum signal control and 1 ul of SAH, a known product and inhibitor of PRMT5/MEP50, was added to columns 11, 12, 23, 24, rows I-P for the minimum signal control. A cocktail (40 ul) containing the PRMT5/MEP50 enzyme and the peptide was added by Multidrop Combi (Thermo-Fisher). The compounds were allowed to incubate with PRMT5/MEP50 for 30 min at 25 degrees Celsius, then a cocktail (10 ul) containing ^3H-SAM was added to initiate the reaction (final volume=51 ul). The final concentrations of the components were as follows: PRMT5/MEP50 was 4 nM, ^3H-SAM was 75 nM, peptide was 40 nM, SAH in the minimum signal control wells was 100 uM, and the DMSO concentration was 1%. The assays were stopped by the addition of non-radioactive SAM (10 ul) to a final concentration of 600 uM, which dilutes the ^3H-SAM to a level where its incorporation into the peptide substrate is no longer detectable. 50 ul of the reaction in the 384-well polypropylene plate was then transferred to a 384-well Flashplate and the biotinylated peptides were allowed to bind to the streptavidin surface for at least 1 hour before being washed three times with 0.1% Tween20 in a Biotek ELx405 plate washer. The plates were then read in a PerkinElmer TopCount plate reader to measure the quantity of ^3H-labeled peptide bound to the Flashplate surface, measured as disintegrations per minute (dpm) or alternatively, referred to as counts per minute (cpm).
[formula] Where dpm=disintegrations per minute, cmpd=signal in assay well, and min and max are the respective minimum and maximum signal controls.
[formula] Where top and bottom are the normally allowed to float, but may be fixed at 100 or 0 respectively in a 3-parameter fit.
By IC50 is commonly meant the concentration that inhibits the measured activity by half. In the case of `O=C(NC[C@H](O)CN1CCc2ccccc2C1)Oc1ccccc1` [Compound 7], the IC50 is 1000 to 10000 nM.

The same assay, now with this note: PRMT5/MEP50 biochemical assay; read-out: Biochemical IC50.
Take `O=C(NCC(O)CN1CCc2ccccc2C1)c1cccc(-c2ccccn2)c1` (stereo not drawn) [Compound 1, N-(3-(3,4-dihydroisoquinolin-2(1H)-yl)-2-hydroxypropyl)-3-(pyridin-2-yl)benzamide]: the IC50 is less than 100 nM.
As for `Cn1nccc1-c1cccc(C(=O)NCC(O)CN2CCc3ccccc3C2)c1` (stereo not drawn) [Compound 2, N-(3-(3,4-dihydroisoquinolin-2(1H)-yl)-2-hydroxypropyl)-3-(1-methyl-1H-pyrazol-5-yl)benzamide], the IC50 is less than 100 nM.
Still for that read-out and setting: for `O=C(NC[C@H](O)CN1CCc2ccccc2C1)c1ccccc1` [Compound 3, (S)—N-(3-(3,4-dihydroisoquinolin-2(1H)-yl)-2-hydroxypropyl)benzamide] the value was less than 100 nM; for `O=C(NC[C@@H](O)CN1CCc2ccccc2C1)c1ccccc1` [Compound 4], 1000 to 10000 nM.
Take `O=C(NC[C@H](O)CN1CCc2ccccc2C1)Nc1ccccc1` [Compound 5]: the IC50 was 101 to 1000 nM.
For `O=C(NC[C@@H](O)CN1CCc2ccccc2C1)Nc1ccccc1` [Compound 6], the IC50 fell in the range of 1000 to 10000 nM.
On the same count and under the same terms, the same measure for `O=C(NCC(O)CN1CCc2ccccc2C1)c1cccc(-c2cccnc2)c1` (stereo not drawn) [Compound 8, N-(3-(3,4-dihydroisoquinolin-2(1H)-yl)-2-hydroxypropyl)-3-(pyridin-3-yl)benzamide]: less than 100 nM; for `O=C(NCC(O)CN1CCc2ccccc2C1)c1cccc(-c2ccncc2)c1` (stereo not drawn) [Compound 9, N-(3-(3,4-dihydroisoquinolin-2(1H)-yl)-2-hydroxypropyl)-3-(pyridin-4-yl)benzamide]: less than 100 nM.
Same read-out and setting: for `O=C(NCC(O)CN1CCc2ccccc2C1)c1cccc(-c2cc[nH]n2)c1` (stereo not drawn) [Compound 10] the value was less than 100 nM.
On the same count and under the same terms, the same measure for `O=C(NC[C@@H](O)CN1CCc2ccccc2C1)Oc1ccccc1` [Compound 11, (R)-phenyl (3-(3,4-dihydroisoquinolin-2(1H)-yl)-2-hydroxypropyl)carbamate]: less than 100 nM; for `O=C(NCC(O)CN1CCc2ccccc2C1)c1ccc(-c2ccccn2)cc1` (stereo not drawn) [Compound 13, N-(3-(3,4-dihydroisoquinolin-2(1H)-yl)-2-hydroxypropyl)-4-(pyridin-2-yl)benzamide]: less than 100 nM.
Turning to `O=C(NCC(O)CN1CCc2ccccc2C1)c1cccc(N2CCOCC2)c1` (stereo not drawn) [Compound 14, N-(3-(3,4-dihydroisoquinolin-2(1H)-yl)-2-hydroxypropyl)-3-morpholinobenzamide], the IC50 is less than 100 nM.
For the compound `O=C(NCC(O)CN1CCc2ccccc2C1)c1cccc(CNC2CCOCC2)c1` (stereo not drawn) [Compound 15, N-(3-(3,4-dihydroisoquinolin-2(1H)-yl)-2-hydroxypropyl)-3-(((tetrahydro-2H-pyran-4-yl)amino)methyl)benzamide], the IC50 was less than 100 nM.
Take `O=C(NCC(O)CN1CCc2ccccc2C1)c1cccc(NC2CCOCC2)c1` (stereo not drawn) [Compound 16, N-(3-(3,4-dihydroisoquinolin-2(1H)-yl)-2-hydroxypropyl)-3-((tetrahydro-2H-pyran-4-yl)amino)benzamide]: the IC50 is less than 100 nM.
For `O=C(NC[C@@H](O)CN1CCc2ccccc2C1)c1cccc(-c2ccccn2)c1` [Compound 19], the IC50 is less than 100 nM.
Same read-out and setting: for `O=C(NC[C@H](O)CN1CCc2ccccc2C1)c1cccc(-c2ccccn2)c1` [Compound 20] the value was less than 100 nM.
Same read-out and setting: the same measure for `CS(=O)(=O)Nc1cccc(C(=O)NCC(O)CN2CCc3ccccc3C2)c1` (stereo not drawn) [Compound 24]: less than 100 nM; for `CN(C)CCOc1cccc(C(=O)NCC(O)CN2CCc3ccccc3C2)c1` (stereo not drawn) [Compound 28, N-(3-(3,4-dihydroisoquinolin-2(1H)-yl)-2-hydroxypropyl)-3-(2-(dimethylamino)ethoxy)benzamide]: less than 100 nM.
Still for that read-out and setting: for `O=C(NCC(O)CN1CCc2ccccc2C1)c1cccc(CN2CCNCC2)c1` (stereo not drawn) [Compound 29] the value was less than 100 nM.
As for `CN1CCN(Cc2cccc(C(=O)NCC(O)CN3CCc4ccccc4C3)c2)CC1` (stereo not drawn) [Compound 30, N-(3-(3,4-dihydroisoquinolin-2(1H)-yl)-2-hydroxypropyl)-3-((4-methylpiperazin-1-yl)methyl)benzamide], the IC50 was less than 100 nM.
Consider `CN1CCCC1c1cccc(C(=O)NCC(O)CN2CCc3ccccc3C2)c1` (stereo not drawn) [Compound 34, N-(3-(3,4-dihydroisoquinolin-2(1H)-yl)-2-hydroxypropyl)-3-(1-methylpyrrolidin-2-yl) benzamide], for which the IC50 was less than 100 nM.
Still for that read-out and setting: the same measure for `O=C(NCC(O)CN1CCc2ccccc2C1)c1cccc(N2CCNCC2)c1` (stereo not drawn) [Compound 35, N-(3-(3,4-dihydroisoquinolin-2(1H)-yl)-2-hydroxypropyl)-3-(piperazin-1-yl)benzamide]: less than 100 nM; for `CN1CCN(c2cccc(C(=O)NCC(O)CN3CCc4ccccc4C3)c2)CC1` (stereo not drawn) [Compound 36]: less than 100 nM.
On the same count and under the same terms, the same measure for `O=C(NCC(O)CN1CCc2ccccc2C1)c1cccc(C2CCNC2)c1` (stereo not drawn) [Compound 37]: less than 100 nM; for `CN1CCC(c2cccc(C(=O)NCC(O)CN3CCc4ccccc4C3)c2)C1` (stereo not drawn) [Compound 38, N-(3-(3,4-dihydroisoquinolin-2(1H)-yl)-2-hydroxypropyl)-3-(1-methylpyrrolidin-3-yl)benzamide]: less than 100 nM; for `Cc1c(NC2CCOCC2)cccc1C(=O)NCC(O)CN1CCc2ccccc2C1` (stereo not drawn) [Compound 40, N-(3-(3,4-dihydroisoquinolin-2(1H)-yl)-2-hydroxypropyl)-2-methyl-3-((tetrahydro-2H-pyran-4-yl)amino)benzamide]: less than 100 nM.
Still for that read-out and setting: the same measure for `CCN(c1cccc(C(=O)NCC(O)CN2CCc3ccccc3C2)c1C)C1CCOCC1` (stereo not drawn) [Compound 41]: less than 100 nM; for `O=C(NC[C@@H](O)CN1CCc2ccccc2C1)c1cccc(NC2CCOCC2)c1` [Compound 43]: 101 to 1000 nM.
Consider `O=C(NC[C@H](O)CN1CCc2ccccc2C1)c1cccc(NC2CCOCC2)c1` [Compound 44, (S)—N-(3-(3,4-dihydroisoquinolin-2(1H)-yl)-2-hydroxypropyl)-3-((tetrahydro-2H-pyran-4-yl)amino)benzamide], for which the IC50 was less than 100 nM.
Same read-out and setting: the same measure for `O=C(NCC(O)CN1CCc2ccccc2C1)c1cccc(NC2CCOC2)c1` (stereo not drawn) [Compound 45, N-(3-(3,4-dihydroisoquinolin-2(1H)-yl)-2-hydroxypropyl)-3-((tetrahydrofuran-3-yl)amino)benzamide]: less than 100 nM; for `O=C(NCC(O)CN1CCc2ccccc2C1)c1cncc(NC2CCOCC2)c1` (stereo not drawn) [Compound 54, N-(3-(3,4-dihydroisoquinolin-2(1H)-yl)-2-hydroxypropyl)-5-((tetrahydro-2H-pyran-4-yl)amino)nicotinamide]: less than 100 nM.
Regarding `O=C(NCC(O)CN1CCc2ccccc2C1)c1cc(NC2CCOCC2)ccn1` (stereo not drawn) [Compound 55, N-(3-(3,4-dihydroisoquinolin-2(1H)-yl)-2-hydroxypropyl)-4-((tetrahydro-2H-pyran-4-yl)amino)picolinamide], the IC50 was less than 100 nM.
On the same count and under the same terms, for `O=C(NCC(O)CN1CCc2ccccc2C1)c1ccc(OC2CCOCC2)cc1` (stereo not drawn) [Compound 58, N-(3-(3,4-dihydroisoquinolin-2(1H)-yl)-2-hydroxypropyl)-4-((tetrahydro-2H-pyran-4-yl)oxy)benzamide] the value was less than 100 nM.
Turning to `O=C(NCC(O)CN1CCc2ccccc2C1)c1cccc(CC2CCOCC2)c1` (stereo not drawn) [Compound 59], the IC50 is less than 100 nM.
For the compound `O=C(NCC(O)CN1CCc2ccccc2C1)c1cccc(NC2CCCOC2)c1` (stereo not drawn) [Compound 60], the half-maximal inhibitory concentration (IC50) fell in the range of 101 to 1000 nM.
